# Like-named read-outs stand apart in the source and are kept apart here.
# Experiments:
# [1] = test system: interior spruce somatic embryos; assay: Elevated sucrose levels (4-10% w/v) and extended nutripriming (3-5 days): ex vitro germination and growth of interior spruce genotypes 5-1378 and 107-2049; assay type: in vivo, Picea glauca (Moench) Voss x P. engelmannii Parry ex Engelm.
# Method: Mature somatic embryos of interior spruce (Picea glauca (Moench) Voss x P. engelmannii Parry ex Engelm.) genotypes 5-1378 and 107-2049 t were desiccated with the HRHT treatment and stored at 4° C. Embryos were subsequently removed from storage and nutriprimed for one of 3, 4, or 5 days periods as previously described in ½ m24GMD liquid medium containing one of the following sucrose concentrations; 4, 6, 8, and 10% (all w/v). After the nutripriming treatments were completed, the embryos were sown ex vitro onto a peat-based polymer-bound horticultural growing substrate in 504-cell (4 ml/cell) styrofoam miniplug trays (Grow-Tech Inc., San Bautista, Calif.). The sown trays were then placed into a conventional non-sterile horticulture germination chamber in an environment-controlled growth room. The environmental conditions were 22-24° C. air temperature, 80-100% RH, 0.10-0.15% CO2, and a 16-hr photoperiod with 40-120 μmol m^−2s^−1 photosynthetic photon flux. Immediately after the trays containing ex vitro sown nutriprimed embryos were placed into the non-sterile germination chamber, they were misted with a ½ m24GMD nutrient solution amended with 3% w/v sucrose solution until the surfaces of the non-sterile growing substrates were well-wetted. Subsequently, the trays were misted with this solution daily for a 3-week germination period. Aseptic techniques or conditions were not used for application of the nutrient solutions, nor for the germination environment during the 2-week culture period. Furthermore, prophylactic applications of 0.1 g/l benlate, 0.05 g/l ampicillin plus 0.05 g/l penicillin G (or 0.1 ampicillin), and 5 ml/l Gnatrol® were applied at 5-day intervals to control fungi, bacteria, and fungus fly larvae.
# [2] = test system: interior spruce somatic embryos; assay type: in vivo, Picea glauca (Moench) Voss x P. engelmannii Parry ex Engelm.
# Description: The second study assessed the effects adding various osmotica to nutripriming solutions on subsequent germination and development performance. Mature somatic embryos of interior spruce (Picea glauca (Moench) Voss x P. engelmannii Parry ex Engelm.) genotype 23-2672 were desiccated with the HRHT treatment, and then divided into 10 groups of 160 somatic embryos per group. One group was not primed and served as the HRHT control treatment for this study. […] The nutripriming solutions and embryos were placed into 250-ml Kimax® baffled flasks. The nutripriming duration was 72 hrs at temperatures ranging between 20-23° C., and a 24-hr photoperiod of 30 μmol m^−2s^−1 photosynthetic photon flux.
# At the completion of the nutripriming step, the nutriprimed embryos from each treatment were divided into 8 groups of 20 embryos and sown by hand onto vermiculite media in Sigma polycarbonate boxes. The liquid media in these germination boxes were either 3% w/v sucrose m24GMD or m24GMD without sucrose. The experiment design was a random complete block design for each media type. Each nutripriming treatment had 4 replicates of 20 embryos in each germination media type. The germination boxes were placed in a germination room and grown for two weeks under 50-70 μmol m^−2s^−1 photosynthetic photon flux of 16-hour photoperiod at an air temperature of 23° C. The germinants were then harvested and assessed for germination rates, hyperhydricity rates, shoot and root length. Germination was defined as germinants having a root longer than 2 mm, and elongated hypercotyl. Hyperhydricity was defined by the thickening of hypercotyl and watery appearance of the germinants, whether germinated or not germinated.
# [3] = genotype 5-1378, 3% sucrose in nutripriming solution, 3 days priming
# [4] = genotype 5-1378, 4% sucrose in nutripriming solution, 3 days priming
# [5] = genotype 5-1378, 4% sucrose in nutripriming solution, 4 days priming
# [6] = genotype 5-1378, 4% sucrose in nutripriming solution, 5 days priming
# [7] = genotype 5-1378, 6% sucrose in nutripriming solution, 3 days priming
# [8] = genotype 5-1378, 6% sucrose in nutripriming solution, 4 days priming
# [9] = genotype 5-1378, 6% sucrose in nutripriming solution, 5 days priming
# [10] = genotype 5-1378, 8% sucrose in nutripriming solution, 3 days priming
# [11] = genotype 5-1378, 8% sucrose in nutripriming solution, 4 days priming
# [12] = genotype 5-1378, 8% sucrose in nutripriming solution, 5 days priming
# [13] = genotype 5-1378, 10% sucrose in nutripriming solution, 3 days priming
# [14] = genotype 5-1378, 10% sucrose in nutripriming solution, 4 days priming
# [15] = genotype 5-1378, 10% sucrose in nutripriming solution, 5 days priming
# [16] = genotype 107-2049, 3% sucrose in nutripriming solution, 3 days priming
# [17] = genotype 107-2049, 4% sucrose in nutripriming solution, 3 days priming
# [18] = genotype 107-2049, 4% sucrose in nutripriming solution, 4 days priming
# [19] = genotype 107-2049, 4% sucrose in nutripriming solution, 5 days priming
# [20] = genotype 107-2049, 6% sucrose in nutripriming solution, 3 days priming
# [21] = genotype 107-2049, 6% sucrose in nutripriming solution, 4 days priming
# [22] = genotype 107-2049, 6% sucrose in nutripriming solution, 5 days priming
# [23] = genotype 107-2049, 8% sucrose in nutripriming solution, 3 days priming
# [24] = genotype 107-2049, 8% sucrose in nutripriming solution, 4 days priming
# [25] = genotype 107-2049, 8% sucrose in nutripriming solution, 5 days priming
# [26] = genotype 107-2049, 10% sucrose in nutripriming solution, 3 days priming
# [27] = genotype 107-2049, 10% sucrose in nutripriming solution, 4 days priming
# [28] = genotype 107-2049, 10% sucrose in nutripriming solution, 5 days priming
# [29] = germination media m24GMD (without sucrose), osmoticant levels as E220
# [30] = germination media m24GMD plus 3% sucrose, osmoticant levels as E220
structure (smiles),measurement,setting,value
OC[C@H]1O[C@@](CO)(O[C@H]2O[C@H](CO)[C@@H](O)[C@H](O)[C@H]2O)[C@@H](O)[C@@H]1O [sucrose],Germination %,[1]; [3],83.3 ± 8.8%
same,Rooting %,[1]; [3],73.3 ± 8.8%
same,Germination %,[1]; [4],98.3 ± 1.7%
same,Rooting %,[1]; [4],86.7 ± 7.3%
same,Germination %,[1]; [5],96.7 ± 3.3%
same,Rooting %,[1]; [5],91.7 ± 4.4%
same,Germination %,[1]; [6],96.5 ± 1.8%
same,Rooting %,[1]; [6],91.5 ± 6.0%
same,Germination %,[1]; [7],91.7 ± 4.4%
same,Rooting %,[1]; [7],86.7 ± 3.3%
same,Germination %,[1]; [8],96.7 ± 3.3%
same,Rooting %,[1]; [8],90.0 ± 2.9%
same,Germination %,[1]; [9],98.3 ± 1.7%
same,Rooting %,[1]; [9],88.3 ± 4.4%
same,Germination %,[1]; [10],91.7 ± 4.4%
same,Rooting %,[1]; [10],66.7 ± 12.0%
same,Germination %,[1]; [11],100%
same,Rooting %,[1]; [11],91.7 ± 3.3%
same,Germination %,[1]; [12],95.0 ± 5.0%
same,Rooting %,[1]; [12],86.7 ± 8.3%
same,Germination %,[1]; [13],84.7 ± 2.9%
same,Rooting %,[1]; [13],52.5 ± 7.2%
same,Germination %,[1]; [14],100%
same,Rooting %,[1]; [14],88.3 ± 6.0%
same,Germination %,[1]; [15],98.3 ± 1.7%
same,Rooting %,[1]; [15],91.7 ± 4.4%
same,Germination %,[1]; [16],91.7 ± 4.4%
same,Rooting %,[1]; [16],68.3 ± 6.0%
same,Germination %,[1]; [17],90.0 ± 5.0%
same,Rooting %,[1]; [17],71.7 ± 8.8%
same,Germination %,[1]; [18],84.6 ± 6.2%
same,Rooting %,[1]; [18],62.3 ± 13.0%
same,Germination %,[1]; [19],93.3 ± 6.7%
same,Rooting %,[1]; [19],76.2 ± 4.5%
same,Germination %,[1]; [20],81.7 ± 3.3%
same,Rooting %,[1]; [20],66.7 ± 3.3%
same,Germination %,[1]; [21],85.8 ± 2.2%
same,Rooting %,[1]; [21],69.6 ± 6.1%
same,Germination %,[1]; [22],86.7 ± 3.3%
same,Rooting %,[1]; [22],70.0 ± 0.0%
same,Germination %,[1]; [23],76.7 ± 4.4%
same,Rooting %,[1]; [23],51.7 ± 4.4%
same,Germination %,[1]; [24],93.3 ± 4.4%
same,Rooting %,[1]; [24],88.3 ± 4.4%
same,Germination %,[1]; [25],93.3 ± 4.4%
same,Rooting %,[1]; [25],60.0 ± 0.0%
same,Germination %,[1]; [26],81.7 ± 6.7%
same,Rooting %,[1]; [26],36.7 ± 10.1%
same,Germination %,[1]; [27],90.0 ± 7.6%
same,Rooting %,[1]; [27],76.7 ± 8.3%
same,Germination %,[1]; [28],86.7 ± 1.7%
same,Rooting %,[1]; [28],51.7 ± 12.0%
same,Germination %,[2]; [29],91.7 ± 8.3%
same,Root length,[2]; [29],2.4 ± 0.1 mm
same,Shoot length,[2]; [29],14.7 ± 0.3 mm
same,Germination %,"[2]; germination media m24GMD plus 3% sucrose, osmoticant in m24GMD priming solution (w/v): 1% betaine, 1.65% fructose, glucose, mannitol, sorbitol, 3% lactose, maltose, sucrose, 10% PEG 4000, 72 hrs",100%
same,Root length,[2]; [30],11.6 ± 0.9 mm
same,Shoot length,[2]; [30],18.1 ± 0.4 mm
same,% with hyperhydricity,[2]; in vivo,40.0 ± 23.2%

# — patent US6689609B1, “Enhancing germination of plant somatic embryos by priming” (Cellfor Inc., priority 1999, dated 2004)
